Laboratory results published in the supplement of paper PMC7017272.
± gives the standard deviation of the averaged measurements.

Key:
Conditions in all cases: treatment time: 3 days
UT-SCC-40 [1] = test: drug sensitivity score (DSS); higher = more sensitive; extreme values may be limits of the assay
Summary of the method: (§1)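 The FIMM pipeline was used to fit percent-inhibition dose–response curves, giving IC50, maximal inhibition and drug sensitivity score. Input data were CellTiter-Glo 2.0 luminescence readings, normalised to vehicle (0.1% DMSO) and cell-killing control wells, from HPV-negative HNSCC cell lines seeded at 500 cells/well in 384-well plates. Cells sat on plastic, on Matrigel or Myogel coatings (500 µg/mL), or within Matrigel or Myogel plus rat collagen I, and received compounds at five 10-fold concentrations for 3 days.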

UT-SCC-44 [2] = test: as above
Summary of the method: as §1

UT-SCC-73 [3] = test: as above
Summary of the method: as §1

UT-SCC-81 [4] = test: as above
Summary of the method: as §1

UT-SCC-42B [5] = test: as above
Summary of the method: as §1

UT-SCC-42A [6] = test: as above
Summary of the method: as §1

UT-SCC-8 [7] = test: as above
Summary of the method: as §1

UT-SCC-28 [8] = test: as above
Summary of the method: as §1

UT-SCC-106A [9] = test: as above
Summary of the method: as §1

UT-SCC-40 [10] = test: maximal % inhibition of viability relative to DMSO; higher = stronger effect
Protocol: (§2)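 HNSCC cell lines (500 cells/well, 384-well) were cultured on plastic, on top of (2D) or embedded (3D) in Matrigel or human leiomyoma matrix Myogel (500 ug/mL; Myogel 3D mixed with rat collagen I). Cells were treated for 3 days with 5 ten-fold concentrations of each drug, and viability was read by CellTiter-Glo. Viability was normalised to DMSO and benzethonium chloride controls and fitted with the FIMM DSRT pipeline to give IC50 (nM), maximal % inhibition and DSS. Suffixes _1/_2/_3 are replicates. Only inhibition-mode (IC50) fits are kept.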

UT-SCC-44 [11] = test: as above
Protocol: as §2

UT-SCC-73 [12] = test: as above
Protocol: as §2

UT-SCC-81 [13] = test: as above
Protocol: as §2

UT-SCC-42B [14] = test: as above
Protocol: as §2

UT-SCC-42A [15] = test: as above
Protocol: as §2

UT-SCC-8 [16] = test: as above
Protocol: as §2

UT-SCC-28 [17] = test: as above
Protocol: as §2

UT-SCC-14 = test: as above
Protocol: as §2

UT-SCC-106A [18] = test: as above
Protocol: as §2

UT-SCC-24B = test: as above
Protocol: as §2

[19] = culture condition: embedded in Matrigel
[20] = culture condition: embedded in Myogel + collagen I
[21] = culture condition: on top of Matrigel
[22] = culture condition: on top of Myogel
[23] = culture condition: plastic 2D (no matrix)

For C=CC(=O)Nc1cc2c(Nc3ccc(F)c(Cl)c3)ncnc2cc1OCCCN1CCOCC1 [Canertinib], the drug sensitivity score (UT-SCC-40 [1]; [19]) was 27.4 ± 1.1 DSS, the drug sensitivity score (UT-SCC-40 [1]; [20]) was 10.4 ± 1.9 DSS and the drug sensitivity score (UT-SCC-40 [1]; [21]) was 26.2 ± 0.62 DSS. It also gave a drug sensitivity score (UT-SCC-40 [1]; [22]) of 10 ± 1.6 DSS, a drug sensitivity score (UT-SCC-40 [1]; [23]) of 18.6 ± 0.5 DSS and a drug sensitivity score (UT-SCC-44 [2]; [19]) of 4 ± 0.3 DSS. For the same molecule, the drug sensitivity score (UT-SCC-44 [2]; [20]) was 6.57 ± 1.5 DSS, the drug sensitivity score (UT-SCC-44 [2]; [21]) was 8.2 ± 0.27 DSS and the drug sensitivity score (UT-SCC-44 [2]; [22]) was 7.47 ± 2.1 DSS. For the same molecule, the drug sensitivity score (UT-SCC-44 [2]; [23]) was 7.63 ± 1.1 DSS, the drug sensitivity score (UT-SCC-73 [3]; [19]) was 7.6 ± 1.1 DSS and the drug sensitivity score (UT-SCC-73 [3]; [20]) was 7.73 ± 2.5 DSS. It also gave a drug sensitivity score (UT-SCC-73 [3]; [21]) of 8.83 ± 0.23 DSS, a drug sensitivity score (UT-SCC-73 [3]; [22]) of 8.53 ± 0.75 DSS and a drug sensitivity score (UT-SCC-73 [3]; [23]) of 8.87 ± 0.15 DSS. For the same molecule, the drug sensitivity score (UT-SCC-81 [4]; [19]) was 29.4 ± 1.3 DSS, the drug sensitivity score (UT-SCC-81 [4]; [20]) was 9.43 ± 3.1 DSS and the drug sensitivity score (UT-SCC-81 [4]; [21]) was 27.53 ± 0.12 DSS. For the same molecule, the drug sensitivity score (UT-SCC-81 [4]; [22]) was 8.9 ± 0.27 DSS, the drug sensitivity score (UT-SCC-81 [4]; [23]) was 26.1 ± 0.51 DSS and the drug sensitivity score (UT-SCC-42B [5]; [19]) was 23.7 ± 2.4 DSS. The drug sensitivity score (UT-SCC-42B [5]; [21]) was 16.9 ± 2 DSS, the drug sensitivity score (UT-SCC-42B [5]; [22]) was 6.83 ± 0.35 DSS and the drug sensitivity score (UT-SCC-42B [5]; [23]) was 12 ± 1.2 DSS. It also gave a drug sensitivity score (UT-SCC-42A [6]; [19]) of 17.1 ± 0.32 DSS, a drug sensitivity score (UT-SCC-42A [6]; [20]) of 7.67 ± 1.3 DSS and a drug sensitivity score (UT-SCC-42A [6]; [21]) of 18.4 ± 1.2 DSS. For the same molecule, the drug sensitivity score (UT-SCC-42A [6]; [22]) was 9.8 ± 0.98 DSS, the drug sensitivity score (UT-SCC-42A [6]; [23]) was 17.9 ± 0.98 DSS and the drug sensitivity score (UT-SCC-8 [7]; [19]) was 29.83 ± 0.058 DSS. It also gave a drug sensitivity score (UT-SCC-8 [7]; [20]) of 4.77 ± 0.81 DSS, a drug sensitivity score (UT-SCC-8 [7]; [21]) of 29.7 ± 0.64 DSS and a drug sensitivity score (UT-SCC-8 [7]; [22]) of 11.6 ± 2.1 DSS. The drug sensitivity score (UT-SCC-8 [7]; [23]) was 29 ± 0.85 DSS, the drug sensitivity score (UT-SCC-28 [8]; [19]) was 4.2 ± 0.5 DSS and the drug sensitivity score (UT-SCC-28 [8]; [20]) was 8.6 ± 0.27 DSS. The drug sensitivity score (UT-SCC-28 [8]; [21]) was 7.8 ± 0.6 DSS, the drug sensitivity score (UT-SCC-28 [8]; [23]) was 7 ± 0.56 DSS and the drug sensitivity score (UT-SCC-106A [9]; [19]) was 15.8 ± 1.5 DSS. It also gave a drug sensitivity score (UT-SCC-106A [9]; [20]) of 5.8 ± 0.1 DSS, a drug sensitivity score (UT-SCC-106A [9]; [21]) of 19.2 ± 1.5 DSS and a drug sensitivity score (UT-SCC-106A [9]; [22]) of 7.13 ± 0.71 DSS. For the same molecule, the drug sensitivity score (UT-SCC-106A [9]; [23]) was 21 ± 0.93 DSS, the “maximal % inhibition of viability” value (UT-SCC-40 [10]; [19]) was 99.5 ± 0.46% and the “maximal % inhibition of viability” value (UT-SCC-40 [10]; [20]) was 99.37 ± 0.55%. The “maximal % inhibition of viability” value (UT-SCC-40 [10]; [21]) was 99.73 ± 0.38%, the “maximal % inhibition of viability” value (UT-SCC-40 [10]; [22]) was 99.63 ± 0.55% and the “maximal % inhibition of viability” value (UT-SCC-40 [10]; [23]) was 99.67 ± 0.58%. For the same molecule, the “maximal % inhibition of viability” value (UT-SCC-44 [11]; [19]) was 77.5 ± 7%, the “maximal % inhibition of viability” value (UT-SCC-44 [11]; [20]) was 92.5 ± 2.4% and the “maximal % inhibition of viability” value (UT-SCC-44 [11]; [21]) was 92 ± 3.6%. For the same molecule, the “maximal % inhibition of viability” value (UT-SCC-44 [11]; [22]) was 95 ± 3.5%, the “maximal % inhibition of viability” value (UT-SCC-44 [11]; [23]) was 94.1 ± 3.5% and the “maximal % inhibition of viability” value (UT-SCC-73 [12]; [19]) was 99.5 ± 0.46%. The “maximal % inhibition of viability” value (UT-SCC-73 [12]; [20]) was 99.57 ± 0.59%, the “maximal % inhibition of viability” value (UT-SCC-73 [12]; [21]) was 99.13 ± 0.78% and the “maximal % inhibition of viability” value (UT-SCC-73 [12]; [22]) was 98.9 ± 0.98%. For the same molecule, the “maximal % inhibition of viability” value (UT-SCC-73 [12]; [23]) was 99.5 ± 0.7%, the “maximal % inhibition of viability” value (UT-SCC-81 [13]; [19]) was 99.63 ± 0.4% and the “maximal % inhibition of viability” value (UT-SCC-81 [13]; [20]) was 99.77 ± 0.32%. The “maximal % inhibition of viability” value (UT-SCC-81 [13]; [21]) was 99.27 ± 0.64%, the “maximal % inhibition of viability” value (UT-SCC-81 [13]; [22]) was 99.13 ± 0.75% and the “maximal % inhibition of viability” value (UT-SCC-81 [13]; [23]) was 99.77 ± 0.4%. For the same molecule, the “maximal % inhibition of viability” value (UT-SCC-42B [14]; [19]) was 99.5 ± 0.36%, the “maximal % inhibition of viability” value (UT-SCC-42B [14]; [21]) was 99.87 ± 0.23% and the “maximal % inhibition of viability” value (UT-SCC-42B [14]; [22]) was 99.77 ± 0.4%. The “maximal % inhibition of viability” value (UT-SCC-42B [14]; [23]) was 99.17 ± 0.74%, the “maximal % inhibition of viability” value (UT-SCC-42A [15]; [19]) was 96.9 ± 4.2% and the “maximal % inhibition of viability” value (UT-SCC-42A [15]; [20]) was 97.4 ± 3.2%. The “maximal % inhibition of viability” value (UT-SCC-42A [15]; [21]) was 98.3 ± 1.7%, the “maximal % inhibition of viability” value (UT-SCC-42A [15]; [22]) was 98 ± 1.9% and the “maximal % inhibition of viability” value (UT-SCC-42A [15]; [23]) was 99.23 ± 0.8%. The “maximal % inhibition of viability” value (UT-SCC-8 [16]; [19]) was 99.83 ± 0.29%, the “maximal % inhibition of viability” value (UT-SCC-8 [16]; [20]) was 99 ± 1% and the “maximal % inhibition of viability” value (UT-SCC-8 [16]; [21]) was 99.967 ± 0.058%. For the same molecule, the “maximal % inhibition of viability” value (UT-SCC-8 [16]; [22]) was 99.967 ± 0.058%, the “maximal % inhibition of viability” value (UT-SCC-8 [16]; [23]) was 99.37 ± 0.85% and the “maximal % inhibition of viability” value (UT-SCC-28 [17]; [19]) was 82.3 ± 4.4%. The “maximal % inhibition of viability” value (UT-SCC-28 [17]; [20]) was 90.8 ± 3.4%, the “maximal % inhibition of viability” value (UT-SCC-28 [17]; [21]) was 86.1 ± 2.4% and the “maximal % inhibition of viability” value (UT-SCC-28 [17]; [23]) was 80.9 ± 5.2%. The “maximal % inhibition of viability” value (UT-SCC-14; [19]) was 99.23 ± 0.75%, the “maximal % inhibition of viability” value (UT-SCC-14; [20]) was 98.8 ± 1.1% and the “maximal % inhibition of viability” value (UT-SCC-14; [21]) was 99.7 ± 0.27%. For the same molecule, the “maximal % inhibition of viability” value (UT-SCC-14; [22]) was 98.7 ± 1.7%, the “maximal % inhibition of viability” value (UT-SCC-14; [23]) was 98.5 ± 1.4% and the “maximal % inhibition of viability” value (UT-SCC-106A [18]; [19]) was 95.6 ± 2%. For the same molecule, the “maximal % inhibition of viability” value (UT-SCC-106A [18]; [20]) was 95.1 ± 1.2%, the “maximal % inhibition of viability” value (UT-SCC-106A [18]; [21]) was 97.3 ± 2.1% and the “maximal % inhibition of viability” value (UT-SCC-106A [18]; [22]) was 97.6 ± 1%. For the same molecule, the “maximal % inhibition of viability” value (UT-SCC-106A [18]; [23]) was 98.83 ± 0.94%, the “maximal % inhibition of viability” value (UT-SCC-24B; [19]) was 99.67 ± 0.31% and the “maximal % inhibition of viability” value (UT-SCC-24B; [20]) was 99.33 ± 0.61%. The “maximal % inhibition of viability” value (UT-SCC-24B; [21]) was 99.83 ± 0.29%, the “maximal % inhibition of viability” value (UT-SCC-24B; [22]) was 99.7 ± 0.52% and the “maximal % inhibition of viability” value (UT-SCC-24B; [23]) was 99.47 ± 0.46%.
